Reference: article PMC4520450, “Procyanidins Negatively Affect the Activity of the Phosphatases of Regenerating Liver” (PLoS ONE, 2015)

Key:
Format in all cases: cell-based
[1] = tested on: HEK293 cells (empty vector, PRL-1 and PRL-3 overexpressing); experiment: Cytotoxicity by flow cytometry with propidium iodide; conditions: 24 h
Description: To study the effects of procyanidins on PRL-1 and PRL-3 in cells, the trimeric catechin (procyanidin C2, 9) was chosen as a representative example due to its strong inhibitor activity in vitro toward both PRL-s and its smaller size compared to the higher oligomers, which could influence cell permeability. HEK293 cells stably overexpressing PRL-1 and PRL-3 were chosen as model cell line. As a control cell line, HEK293 cells transfected with the empty vector were utilized (see the Experimental Procedures). To avoid false positive results due to cell death, first cell viability was studied in a concentration dependent manner by using flow cytometry. Therefore, cells were treated with different concentrations of compound 9 for 24 h, harvested, and then the ratio of living to dead cells was determined using propidium iodide (Fig 5).
Fig 5 Cytotoxicity of procyanidin C2 (9) in HEK293 cells. Cells were treated with 50, 150 or 300 μM of 9 in the growth medium for 24 h. Cells were harvested, resuspended in PBS buffer and incubated with propidium iodide (1 mg/mL) for 5 min on ice. 10,000 events were set for the number of living cells. The number of living cells was divided by the number of total cells counted and given as percentage of cell survival. Data represent means ± standard errors of the mean (n = 3).
Fig 7 A) Cytotoxicity of procyanidin B3 (8) in HEK293 cells. Cells were treated with 50, 75 or 100 μM of 8 in the growth medium for 24 h. Cells were harvested, resuspended in PBS buffer and incubated with propidium iodide (1 mg/mL) for 5 min on ice. 10,000 events were set for the number of living cells. The number of living cells was divided by the number of total cells counted and given as percentage of cell survival. Data represent means ± standard errors of the mean (n = 3). B) Wound healing abilities of PRL-1 or PRL-3 overexpressing or empty vector control HEK293 cell lines were analyzed in the presence of compound 8 or medium only. Cells were seeded at a concentration of 800,000 cells per insert and procyanidin B3 (8) was added at a concentration of 50 and 75 μM. Speed of migration is shown for combined data from different replicates, as mean ± SD (n = 40–77). Two-sided t-tests with Welsh correction were performed for p < 0.05. ns = not significant;***: < 0.001; **: < 0.01; *: < 0.05.
Flow cytometry was used to determine the ratio of living to dead cells compared to the control. HEK293 empty vector and PRL-3 overexpressing cells were seeded in a transparent 6-well plate with 400,000 cells/well in DMEM medium without Phenol red, supplemented with 10% FBS, 1% glutamine and 0.2% hygromycin and blasticidin. For induction of PRL-3 expression, 0.1% tetracycline was added. After 24 hours incubation at 37°C, procyanidins 8 or 9 dissolved in growth medium and growth medium as a control were added to the respective wells in the indicated final concentrations and incubated for another 24 hours. Then, the medium was removed and collected in Eppendorf tubes, centrifuged for 5 min at 500 rpm and the supernatant removed. Then 1 mL of PBS (10%) was added to each well and the cells detached with a cell scraper. […] After thorough mixing the cell suspension was injected into a LSR- Fortessa Bench Top Analyzer (Beckton Dickinson) and the number of living and dead cells counted. […] The number of living cells was divided by the number of total cells counted and given as percentage of cell survival.

[2] = tested on: HEK293 empty vector control cell line; experiment: Wound healing assay; conditions: 7 h, empty vector cells
Procedure: (§1) To study if procyanidin C2 is able to inhibit PRL-1 and PRL-3 in cells, HEK293 cells were treated in a wound-healing assay (see the experimental procedures). […] As a control the empty vector cell line was again utilized. […] The migration speed was for all cell lines similar when treated with 50 μM of 9. To further corroborate these findings we performed additionally a transwell assay as an alternative way to study cell migration.
(§2) Fig 6 Wound healing abilities of PRL-1 or PRL-3 overexpressing or empty vector control HEK293 cell lines were analyzed in the presence of compound 9 or medium only. Cells were seeded at a concentration of 800,000 cells per insert and procyanidin C2 (9) was added at a concentration of 25 and 50 μM. A) Pictures of the wound gaps were taken at 0 h and 7 h for both conditions (with and without treatment). B) Quantification of the wound healing experiment. Speed of migration is shown for combined data from different replicates, as mean ± SD (n = 38–88). Two-sided t-tests with Welsh correction were performed for p < 0.05. ns = not significant;***: < 0.001; **: < 0.01; *: < 0.05. C) Effect of polyphenolic compounds in a transwell assay on the cell migration of HEK293 empty vector and PRL-3 overexpressing cell lines. Cells were seeded at a concentration of 100,000 cells per insert and procyanidin C2 (9) was added at a final concentration of 25 and 50 μM. Migration was allowed for 16 h before harvesting and staining with calcein AM for fluorescent readout. Mean ± SD (n = 60–72) is shown for combined data from different replicates. Two-sided t-tests with Welsh correction were performed for p < 0.05. ns = not significant. D) Quantification of wound healing experiment including blocking PRL-1 and PRL-3 with analog 3. Speed of migration is shown for combined data from different replicates, as mean ± SD (n = 63–82). Two-sided t-tests with Welsh correction were performed for p < 0.05.
(§3) Wound healing experiments were carried out with μ-dish 35mm culture inserts. 8 × 10^5 cells/mL of the respective HEK293 stable cell lines were seeded into each of the two insert wells and allowed to settle for 40 h in the presence of tetracycline. Then the inserts were gently removed and growth medium supplemented with 7.5% FBS and 0.1% tetracycline was added as well as procyanidin C2 (9) or procyanidin B3 (8) at a final concentration of 25, 50 or 75 μM. For the experiment including blocking of PRLs with analog 3, the latter one was added at a final concentration of 35 μM, followed by addition of procyanidin C2 (9) at either 25 or 50 μM final concentration. Negative controls contained growth medium with FBS only. Pictures of the wound gap were taken at 0 h and 7 h time points. A Zeiss Cellobserver HS microscope was used with 10 × magnitude. For data analysis, in each experiment, the distances between both cell fronts at time point 0 h and 7 h were measured by taking 20 different measuring points. Then all the measurements from different replicates (4) for each experiment were combined and analyzed by t-test using Welsh correction in GraphPad Prism. Data are shown with 99% confidence intervals.

[3] = tested on: PRL-1 overexpressing HEK293 cells; experiment: Wound healing assay; conditions: for cell migration, wound healing: 7 h, PRL-1 overexpressing cells
Procedure: as §1, §2, §3

SMILES	cytotoxic effects ([1]; 50, 75 and 100 μM, all three cell lines)	concentration up to which not cytotoxic [1]	cell migration, wound healing ([2]; 50 μM)	cell migration, wound healing ([2]; 75 μM)	cell migration, wound healing ([3]; 50 μM)	cell migration, wound healing ([3]; 75 μM)	concentration up to which not cytotoxic ([1]; human)	cell migration, wound healing ([2]; 25 μM)	migration, wound healing, PRLs blocked with analog 3 ([3]; 25 μM of 9 plus 35 μM analog 3, PRL-1 overexpressing cells)	cell migration, wound healing ([3]; 25 μM)	migration speed, wound healing, PRLs blocked with analog 3 ([3]; 50 μM of 9 plus 35 μM analog 3, PRL-1 overexpressing cells)
Oc1cc(O)c2c(c1)O[C@H](c1ccc(O)c(O)c1)[C@@H](O)[C@@H]2c1c(O)cc(O)c2c1O[C@H](c1ccc(O)c(O)c1)[C@@H](O)C2 [Procyanidin B3 (8), Procyanidin B3]	did not show any cytotoxic effects	at least 100 μM	did not significantly increase migration behavior	did not significantly increase the migration speed	significantly decreased the number of migrating cells	further decreased migration					
Oc1cc(O)c2c(c1)O[C@H](c1ccc(O)c(O)c1)[C@@H](O)[C@@H]2c1c(O)cc(O)c2c1O[C@H](c1ccc(O)c(O)c1)[C@@H](O)[C@@H]2c1c(O)cc(O)c2c1O[C@H](c1ccc(O)c(O)c1)[C@@H](O)C2 [Procyanidin C2 (9), Procyanidin C2]			significantly increased the number of migrating cells		did not change any further compared to 25 μM		up to 50 μM	slightly increased migration behavior	not fully restored to the same level as the empty vector cell line	slight drop in cell migration	exactly the same as for the empty vector cell line
